Source: patent US20230250096A1, “SUBSTITUTED PHENYL-1H-PYRROLO[2,3-c] PYRIDINE DERIVATIVES” (Janssen Pharmaceutica NV, priority 2021, published 2023)
Where two headings read alike, the source gives them in different places.

Experiments:
Format in all cases: cell-based, human
[1] = test system: MOLM14 cells; test: Proliferation assay (spheroid confluence, 8 days), MOLM14; conditions: Homo sapiens, MOLM-14, MOLM14; read-out: spheroid assay_MOLM14 IC50
How it was run: (§1)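 Cells grown as spheroids in ultra-low attachment round-bottom wells (200 MOLM14 or OCI-AML3, 300 KO-52 per well) with compound dilutions at 0.3% DMSO, 8 days, 37° C. Confluence from live-cell imaging at day 8; % effect normalized to DMSO and high-dose reference/staurosporin, absolute IC50 from variable-slope fit.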

[2] = test system: OCI-AML3 cells; test: Proliferation assay (spheroid confluence, 8 days), OCI-AML3; conditions: read-out: spheroid assay_OCI-AML3 IC50
How it was run: as §1

[3] = test system: KO-52 cells; test: Proliferation assay (spheroid confluence, 8 days), KO-52 control cell line; conditions: Homo sapiens, read-out: spheroid assay_KO-52 IC50
How it was run: as §1

[4] = Homo sapiens, OCI-AML-3, OCI-AML3

SMILES	IC50 [1] [nM]	IC50 [2, 4] [nM]	IC50 [3] [nM]	IC50 ([2]; OCI-AML3) [nM]
Cc1cncc2c1c(C[C@@H]1CCN(C[C@H]3CCNC(=O)CC3)C1)cn2-c1ccc(F)cc1C(=O)N1[C@H](C)CC[C@H]1C (single isomer, unassigned) [Compound 352a]	7	11	> 15000	
Cc1cncc2c1c(C[C@@H]1CCN(C[C@@H]3CCNC(=O)CC3)C1)cn2-c1ccc(F)cc1C(=O)N1[C@H](C)CC[C@H]1C (single isomer, unassigned) [Compound 352b]	140	263	> 15000	
Cc1cncc2c1c(C[C@@H]1CCN(CC3CCNC(=O)CC3)C1)cn2-c1ccc(F)cc1C(=O)N1CCC[C@H]1C (single isomer, unassigned) [Compound 353a]	6		> 15000	11
CC(=O)N1CCC(C)(CN2CC(Cc3cn(-c4ccc(F)cc4C(=O)N(C)C(C)C)c4cncc(C)c34)C2)CC1 [Compound 84]	63	120	4300	
CC(=O)N1CCC(CN2CCC(Cc3cn(-c4ccc(F)cc4C(=O)N(C)C(C)C)c4cncc(C)c34)C2C)CC1 (stereo not drawn) [Compound 228]	10	11	5800	
